Measured values: ChEMBL document CHEMBL1275577, “Study of the in vitro activities of rifaximin and comparator agents against 536 anaerobic intestinal bacteria from the perspective of potential utility in pathology involving bowel flora” (Antimicrob Agents Chemother, 2009)
Values after ≈ are worked out from the molar mass of the structure shown.

Experiments:
Type in all cases: functional
Lactobacillus jensenii = assay: Antimicrobial activity against Lactobacillus jensenii by Wadsworth agar dilution method
Clostridium septicum = assay: Antimicrobial activity against Clostridium septicum by Wadsworth agar dilution method
[1] = test system: Limosilactobacillus fermentum; assay: Antimicrobial activity against Lactobacillus fermentum by Wadsworth agar dilution method
Clostridium spiroforme = assay: Antimicrobial activity against Clostridium spiroforme by Wadsworth agar dilution method; settings: Thomasclavelia spiroformis
Clostridium beijerinckii = assay: Antimicrobial activity against Clostridium beijerinckii by Wadsworth agar dilution method
[2] = test system: Lactiplantibacillus plantarum; assay: Antimicrobial activity against Lactobacillus plantarum by Wadsworth agar dilution method
Prevotella disiens = assay: Antimicrobial activity against Prevotella disiens by Wadsworth agar dilution method
Clostridium perfringens = assay: Antimicrobial activity against Clostridium perfringens by Wadsworth agar dilution method
Clostridioides difficile = assay: Antimicrobial activity against Clostridium difficile by Wadsworth agar dilution method
[3] = test system: Peptostreptococcus anaerobius; assay: Antimicrobial activity against Peptostreptococcus anaerobius by Wadsworth agar dilution method
Bifidobacterium bifidum = assay: Antimicrobial activity against Bifidobacterium bifidum by Wadsworth agar dilution method
[4] = test system: Catenibacterium mitsuokai; assay: Antimicrobial activity against Catenibacterium mitsuokai by Wadsworth agar dilution method
Eggerthella lenta = assay: Antimicrobial activity against Eggerthella lenta by Wadsworth agar dilution method
Propionibacterium avidum = assay: Antimicrobial activity against Propionibacterium avidum by Wadsworth agar dilution method; settings: Cutibacterium avidum
Schaalia odontolytica = assay: Antimicrobial activity against Actinomyces odontolyticus by Wadsworth agar dilution method
[5] = test system: Lactobacillus acidophilus; assay: Antimicrobial activity against Lactobacillus acidophilus by Wadsworth agar dilution method
Bilophila wadsworthia = assay: Antimicrobial activity against Bilophila wadsworthia by Wadsworth agar dilution method in presence of 1% pyruvic acid
[Clostridium] innocuum = Antimicrobial activity against Clostridium innocuum by Wadsworth agar dilution method
Anaerococcus prevotii = assay: Antimicrobial activity against Anaerococcus prevotii by Wadsworth agar dilution method
Clostridium cocleatum = assay: Antimicrobial activity against Clostridium cocleatum by Wadsworth agar dilution method; settings: Thomasclavelia cocleata
Eubacterium saburreum = assay: Antimicrobial activity against Eubacterium saburreum by Wadsworth agar dilution method; settings: Lachnoanaerobaculum saburreum
Peptoniphilus harei = assay: Antimicrobial activity against Peptoniphilus harei by Wadsworth agar dilution method
[6] = test system: Clostridium acetobutylicum; assay: Antimicrobial activity against Clostridium acetobutylicum by Wadsworth agar dilution method
Porphyromonas somerae = assay: Antimicrobial activity against Porphyromonas somerae by Wadsworth agar dilution method
Eubacterium rectale = assay: Antimicrobial activity against Eubacterium rectale by Wadsworth agar dilution method; settings: Agathobacter rectalis
[7] = test system: Fusobacterium necrophorum; assay: Antimicrobial activity against Fusobacterium necrophorum by Wadsworth agar dilution method
Eubacterium biforme = assay: Antimicrobial activity against Eubacterium biforme by Wadsworth agar dilution method; settings: Holdemanella biformis
Clostridium glycolicum = assay: Antimicrobial activity against Clostridium glycolicum by Wadsworth agar dilution method; settings: Terrisporobacter glycolicus
Fusobacterium mortiferum = assay: Antimicrobial activity against Fusobacterium mortiferum by Wadsworth agar dilution method in presence of beta-lactamase inhibitor Sulbactam
Desulfovibrio sp. = assay: Antimicrobial activity against Desulfovibrio sp. by Wadsworth agar dilution method
[8] = test system: Bacteroides thetaiotaomicron; assay: Antimicrobial activity against Bacteroides thetaiotaomicron by Wadsworth agar dilution method
Blautia producta = assay: Antimicrobial activity against Ruminococcus productus by Wadsworth agar dilution method
Atopobium minutum = assay: Antimicrobial activity against Atopobium minutum by Wadsworth agar dilution method
[9] = test system: Clostridium aminobutyricum; assay: Antimicrobial activity against Clostridium aminobutyricum by Wadsworth agar dilution method
Clostridium sp. = assay: Antimicrobial activity against Clostridium sp. by Wadsworth agar dilution method
[10] = test system: Bifidobacterium pseudolongum; assay: Antimicrobial activity against Bifidobacterium pseudolongum by Wadsworth agar dilution method
Actinomyces viscosus = assay: Antimicrobial activity against Actinomyces viscosus by Wadsworth agar dilution method
Porphyromonas uenonis = assay: Antimicrobial activity against Porphyromonas uenonis by Wadsworth agar dilution method
Bacteroides ovatus = assay: Antimicrobial activity against Bacteroides ovatus by Wadsworth agar dilution method
Bacteroides caccae = assay: Antimicrobial activity against Bacteroides caccae by Wadsworth agar dilution method
Ruminococcus torques = assay: Antimicrobial activity against Ruminococcus torques by Wadsworth agar dilution method; settings: Mediterraneibacter torques
[11] = test system: Prevotella melaninogenica; assay: Antimicrobial activity against Prevotella melaninogenica by Wadsworth agar dilution method
Eubacterium callanderi = assay: Antimicrobial activity against Eubacterium callanderi by Wadsworth agar dilution method
[12] = test system: Propionibacterium propionicum; assay: Antimicrobial activity against Propionibacterium propionicum by Wadsworth agar dilution method; settings: Arachnia propionica
Clostridium sporogenes = assay: Antimicrobial activity against Clostridium sporogenes by Wadsworth agar dilution method
[13] = test system: Porphyromonas asaccharolytica; assay: Antimicrobial activity against Porphyromonas asaccharolyticus by Wadsworth agar dilution method
[14] = Antimicrobial activity against Bifidobacterium pseudocatenulatum by Wadsworth agar dilution method

NC[C@@H]1O[C@H](O[C@H]2[C@@H](O)[C@H](O[C@@H]3[C@@H](O)[C@H](N)C[C@H](N)[C@H]3O[C@H]3O[C@H](CN)[C@@H](O)[C@H](O)[C@H]3N)O[C@@H]2CO)[C@H](N)[C@@H](O)[C@@H]1O [FRAMYCETIN]
MIC50 (Lactobacillus jensenii): 128 µg/mL (≈ 208 µM) | MIC90 (Lactobacillus jensenii): 1020 µg/mL (≈ 1670 µM) | MIC50 (Clostridium septicum): 256 µg/mL (≈ 416 µM) | MIC90 (Clostridium septicum): 1020 µg/mL (≈ 1670 µM) | MIC50 [1]: 128 µg/mL (≈ 208 µM) | MIC90 [1]: 1020 µg/mL (≈ 1670 µM) | MIC50 (Clostridium spiroforme): 256 µg/mL (≈ 416 µM) | MIC90 (Clostridium spiroforme): 1020 µg/mL (≈ 1670 µM) | MIC50 (Clostridium beijerinckii): 256 µg/mL (≈ 416 µM) | MIC90 (Clostridium beijerinckii): 1020 µg/mL (≈ 1670 µM) | MIC50 [2]: 128 µg/mL (≈ 208 µM) | MIC90 [2]: 1020 µg/mL (≈ 1670 µM) | MIC50 (Prevotella disiens): 512 µg/mL (≈ 833 µM) | MIC90 (Prevotella disiens): 1020 µg/mL (≈ 1670 µM) | MIC50 (Clostridium perfringens): 1020 µg/mL (≈ 1670 µM) | MIC90 (Clostridium perfringens): > 1020 µg/mL | MIC50 (Clostridioides difficile): 256 µg/mL (≈ 416 µM) | MIC90 (Clostridioides difficile): 512 µg/mL (≈ 833 µM) | MIC50 [3]: 128 µg/mL (≈ 208 µM) | MIC90 [3]: 512 µg/mL (≈ 833 µM) | MIC50 (Bifidobacterium bifidum): 128 µg/mL (≈ 208 µM) | MIC90 (Bifidobacterium bifidum): 1020 µg/mL (≈ 1670 µM) | MIC50 [4]: 128 µg/mL (≈ 208 µM) | MIC90 [4]: 1020 µg/mL (≈ 1670 µM) | MIC50 (Eggerthella lenta): 128 µg/mL (≈ 208 µM) | MIC90 (Eggerthella lenta): 1020 µg/mL (≈ 1670 µM) | MIC50 (Propionibacterium avidum): 128 µg/mL (≈ 208 µM) | MIC90 (Propionibacterium avidum): 1020 µg/mL (≈ 1670 µM) | MIC50 (Schaalia odontolytica): 128 µg/mL (≈ 208 µM) | MIC90 (Schaalia odontolytica): 1020 µg/mL (≈ 1670 µM) | MIC50 [5]: 128 µg/mL (≈ 208 µM) | MIC90 [5]: 1020 µg/mL (≈ 1670 µM) | MIC50 (Bilophila wadsworthia): > 1020 µg/mL | MIC90 (Bilophila wadsworthia): > 1020 µg/mL | MIC50 ([Clostridium] innocuum): > 1020 µg/mL | MIC90 ([Clostridium] innocuum): > 1020 µg/mL | MIC50 (Anaerococcus prevotii): 128 µg/mL (≈ 208 µM) | MIC90 (Anaerococcus prevotii): 512 µg/mL (≈ 833 µM) | MIC50 (Clostridium cocleatum): 256 µg/mL (≈ 416 µM) | MIC90 (Clostridium cocleatum): 1020 µg/mL (≈ 1670 µM) | MIC50 (Eubacterium saburreum): 128 µg/mL (≈ 208 µM) | MIC90 (Eubacterium saburreum): 1020 µg/mL (≈ 1670 µM) | MIC50 (Peptoniphilus harei): 128 µg/mL (≈ 208 µM) | MIC90 (Peptoniphilus harei): 512 µg/mL (≈ 833 µM) | MIC50 [6]: 256 µg/mL (≈ 416 µM) | MIC90 [6]: 1020 µg/mL (≈ 1670 µM) | MIC50 (Porphyromonas somerae): 512 µg/mL (≈ 833 µM) | MIC90 (Porphyromonas somerae): > 1020 µg/mL | MIC50 (Eubacterium rectale): 128 µg/mL (≈ 208 µM) | MIC90 (Eubacterium rectale): 1020 µg/mL (≈ 1670 µM) | MIC50 [7]: 512 µg/mL (≈ 833 µM) | MIC90 [7]: > 1020 µg/mL | MIC50 (Eubacterium biforme): 128 µg/mL (≈ 208 µM) | MIC90 (Eubacterium biforme): 1020 µg/mL (≈ 1670 µM) | MIC50 (Clostridium glycolicum): 256 µg/mL (≈ 416 µM) | MIC90 (Clostridium glycolicum): 1020 µg/mL (≈ 1670 µM) | MIC50 (Fusobacterium mortiferum): 512 µg/mL | MIC90 (Fusobacterium mortiferum): > 1020 µg/mL | MIC50 (Desulfovibrio sp.): 256 µg/mL (≈ 416 µM) | MIC90 (Desulfovibrio sp.): 1020 µg/mL (≈ 1670 µM) | MIC50 [8]: > 1020 µg/mL | MIC90 [8]: > 1020 µg/mL | MIC50 (Blautia producta): 128 µg/mL (≈ 208 µM) | MIC90 (Blautia producta): 512 µg/mL (≈ 833 µM) | MIC50 (Atopobium minutum): 128 µg/mL (≈ 208 µM) | MIC90 (Atopobium minutum): 1020 µg/mL (≈ 1670 µM) | MIC50 [9]: 256 µg/mL (≈ 416 µM) | MIC90 [9]: 1020 µg/mL (≈ 1670 µM) | MIC50 (Clostridium sp.): 256 µg/mL (≈ 416 µM) | MIC90 (Clostridium sp.): 1020 µg/mL (≈ 1670 µM) | MIC50 [10]: 128 µg/mL (≈ 208 µM) | MIC90 [10]: 1020 µg/mL (≈ 1670 µM) | MIC50 (Actinomyces viscosus): 128 µg/mL (≈ 208 µM) | MIC90 (Actinomyces viscosus): 1020 µg/mL (≈ 1670 µM) | MIC50 (Porphyromonas uenonis): 512 µg/mL (≈ 833 µM) | MIC90 (Porphyromonas uenonis): > 1020 µg/mL | MIC50 (Bacteroides ovatus): > 1020 µg/mL | MIC90 (Bacteroides ovatus): > 1020 µg/mL | MIC50 (Bacteroides caccae): > 1020 µg/mL | MIC90 (Bacteroides caccae): > 1020 µg/mL | MIC50 (Ruminococcus torques): 128 µg/mL (≈ 208 µM) | MIC90 (Ruminococcus torques): 512 µg/mL (≈ 833 µM) | MIC50 [11]: 512 µg/mL (≈ 833 µM) | MIC90 [11]: 1020 µg/mL (≈ 1670 µM) | MIC50 (Eubacterium callanderi): 128 µg/mL (≈ 208 µM) | MIC90 (Eubacterium callanderi): 1020 µg/mL (≈ 1670 µM) | MIC50 [12]: 128 µg/mL (≈ 208 µM) | MIC90 [12]: 1020 µg/mL (≈ 1670 µM) | MIC50 (Clostridium sporogenes): 256 µg/mL (≈ 416 µM) | MIC90 (Clostridium sporogenes): 1020 µg/mL (≈ 1670 µM) | MIC50 [13]: 512 µg/mL (≈ 833 µM) | MIC90 [13]: > 1020 µg/mL | MIC50 [14]: 128 µg/mL (≈ 208 µM) | MIC90 [14]: 1020 µg/mL (≈ 1670 µM)
